Experimental data reported in patent US10758534B2 (Vertex Pharmaceuticals Incorporated, priority 2014, dated 2020).

Target: T1, F508del (Homo sapiens, UniProt P13569, DEL508-508)
T1 construct: expressed in transfected cells
Experiment: Protocol 1: membrane potential optical assay (FLIPR III, voltage sensing dye), identification of potentiator compounds
Type: cell-based
Conditions: Table 3, compounds of Table 1
Outline: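 NIH 3T3 fibroblasts stably expressing F508del were cultured at 27° C for 24 hrs for temperature correction, then treated with compounds or DMSO and loaded with a voltage-sensing redistribution dye. Forskolin added with a Cl⁻ gradient activated the channel; membrane-potential fluorescence on FLIPR III reported increased gating.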

T1 sequence (P13569 with tags, fused parts or gaps DEL508-508): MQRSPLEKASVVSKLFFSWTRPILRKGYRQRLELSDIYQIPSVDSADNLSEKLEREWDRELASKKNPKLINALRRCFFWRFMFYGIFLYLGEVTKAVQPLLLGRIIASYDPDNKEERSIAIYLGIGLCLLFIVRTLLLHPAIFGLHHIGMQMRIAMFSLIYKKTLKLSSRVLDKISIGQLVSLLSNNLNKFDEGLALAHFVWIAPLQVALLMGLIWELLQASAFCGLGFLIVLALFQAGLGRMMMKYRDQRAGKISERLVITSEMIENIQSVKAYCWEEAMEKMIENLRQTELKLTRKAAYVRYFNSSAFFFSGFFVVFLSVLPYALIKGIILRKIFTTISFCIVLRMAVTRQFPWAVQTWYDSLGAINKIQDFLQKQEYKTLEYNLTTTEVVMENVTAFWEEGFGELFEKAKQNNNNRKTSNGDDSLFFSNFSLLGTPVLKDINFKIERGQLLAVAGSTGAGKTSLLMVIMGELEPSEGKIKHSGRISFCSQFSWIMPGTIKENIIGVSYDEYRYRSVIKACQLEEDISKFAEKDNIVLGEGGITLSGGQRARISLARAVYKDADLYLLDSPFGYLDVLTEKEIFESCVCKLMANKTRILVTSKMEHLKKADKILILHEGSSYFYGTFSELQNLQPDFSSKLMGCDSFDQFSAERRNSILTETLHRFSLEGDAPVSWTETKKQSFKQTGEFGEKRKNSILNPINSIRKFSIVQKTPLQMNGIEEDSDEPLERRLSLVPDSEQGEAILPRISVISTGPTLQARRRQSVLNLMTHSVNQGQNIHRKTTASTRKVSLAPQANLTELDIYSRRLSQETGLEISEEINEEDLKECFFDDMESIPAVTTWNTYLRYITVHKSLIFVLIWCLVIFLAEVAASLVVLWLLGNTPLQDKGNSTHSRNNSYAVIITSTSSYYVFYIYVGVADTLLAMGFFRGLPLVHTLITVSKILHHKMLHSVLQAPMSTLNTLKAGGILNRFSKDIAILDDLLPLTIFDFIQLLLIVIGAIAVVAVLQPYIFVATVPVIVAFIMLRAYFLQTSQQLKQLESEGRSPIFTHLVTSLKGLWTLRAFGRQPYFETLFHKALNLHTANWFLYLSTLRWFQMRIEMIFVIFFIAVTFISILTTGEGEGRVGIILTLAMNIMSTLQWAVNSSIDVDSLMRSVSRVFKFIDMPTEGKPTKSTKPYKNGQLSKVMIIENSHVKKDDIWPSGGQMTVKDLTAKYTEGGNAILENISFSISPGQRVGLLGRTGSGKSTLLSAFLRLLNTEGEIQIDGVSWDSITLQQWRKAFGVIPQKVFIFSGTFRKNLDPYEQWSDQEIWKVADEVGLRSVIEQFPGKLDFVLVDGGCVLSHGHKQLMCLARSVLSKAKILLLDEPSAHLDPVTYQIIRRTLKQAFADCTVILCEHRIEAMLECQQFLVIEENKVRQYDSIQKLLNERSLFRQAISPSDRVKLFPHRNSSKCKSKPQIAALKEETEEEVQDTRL

Compound	EC30
COc1ccc(OC)c(-c2ccc(C(=O)NS(=O)(=O)c3ccc[nH]c3=O)c(Oc3c(C)cc(C)cc3C)n2)c1 [Compound 888, 6-(2,5-dimethoxyphenyl)-N-[(2-oxo-1H-pyridin-3-yl)sulfonyl]-2-(2,4,6-trimethylphenoxy)pyridine-3-carboxamide]	++ (“++” means between 3 uM and 10 uM)
CC(C)COc1ccc(-c2ccc(C(=O)NS(=O)(=O)c3ccc[nH]c3=O)c(N3[C@H](C)CC[C@@H]3C)n2)cc1 [Compound 891, 2-[(2S,5R)-2,5-dimethylpyrrolidin-1-yl]-6-(4-isobutoxyphenyl)-N-[(2-oxo-1H-pyridin-3-yl)sulfonyl]pyridine-3-carboxamide]	+++ (“+++” means <3 uM)
COc1ncc(-c2ccc(C(=O)NS(=O)(=O)c3cc[nH]n3)c(Oc3ccc(C)cc3C)n2)cc1C [Compound 892, 2-(2,4-dimethylphenoxy)-6-(6-methoxy-5-methyl-3-pyridyl)-N-(1H-pyrazol-3-ylsulfonyl)pyridine-3-carboxamide]	++ (“++” means between 3 uM and 10 uM)
COc1ncc(-c2ccc(C(=O)NS(=O)(=O)c3nccnc3N)c(Oc3ccc(C)cc3C)n2)cc1C [Compound 893, N-(3-aminopyrazin-2-yl)sulfonyl-2-(2,4-dimethylphenoxy)-6-(6-methoxy-5-methyl-3-pyridyl)pyridine-3-carboxamide]	+++ (“+++” means <3 uM)
CC(C)COc1cc(F)cc(-c2ccc(C(=O)NS(=O)(=O)c3cccc(N)n3)c(OCC3CC3(C)C)n2)c1 (centres unmarked) [Compound 894, N-[(6-amino-2-pyridyl)sulfonyl]-2-[(2,2-dimethylcyclopropyl)methoxy]-6-(3-fluoro-5-isobutoxy-phenyl)pyridine-3-carboxamide]	+++ (“+++” means <3 uM)
Cc1cc(C)c(Oc2nc3c(cc2C(=O)NS(=O)(=O)c2ccc[nH]c2=O)CCCC3(C)C)c(C)c1 [Compound 899, 8,8-dimethyl-N-[(2-oxo-1H-pyridin-3-yl)sulfonyl]-2-(2,4,6-trimethylphenoxy)-6,7-dihydro-5H-quinoline-3-carboxamide]	+++ (“+++” means <3 uM)
CC(C)COc1cc(-c2ccc(C(=O)NS(=O)(=O)c3ccc[nH]c3=O)c(N3[C@H](C)CC[C@@H]3C)n2)ccc1Cl [Compound 902, 6-(4-chloro-3-isobutoxy-phenyl)-2-[(2S,5R)-2,5-dimethylpyrrolidin-1-yl]-N-[(2-oxo-1H-pyridin-3-yl)sulfonyl]pyridine-3-carboxamide]	+++ (“+++” means <3 uM)
CC(C)Oc1ccc(-c2ccc(C(=O)NS(=O)(=O)c3cccc(N)n3)c(N3C4CCC3CC4)n2)cn1 [Compound 903, N-[(6-amino-2-pyridyl)sulfonyl]-2-(7-azabicyclo[2.2.1]heptan-7-yl)-6-(6-isopropoxy-3-pyridyl)pyridine-3-carboxamide]	++ (“++” means between 3 uM and 10 uM)
CC(C)COc1cc(F)cc(-c2ccc(C(=O)NS(=O)(=O)c3ccn[nH]3)c(N3CC(C)CC3(C)C)n2)c1 (centres unmarked) [Compound 904, 6-(3-fluoro-5-isobutoxy-phenyl)-N-(1H-pyrazol-5-ylsulfonyl)-2-(2,2,4-trimethylpyrrolidin-1-yl)pyridine-3-carboxamide]	+++ (“+++” means <3 uM)
CC(C)COc1cc(F)cc(-c2ccc(C(=O)NS(=O)(=O)c3cccc(N)n3)c(N3CCC4CC43)n2)c1 (centres unmarked) [Compound 906, N-[(6-amino-2-pyridyl)sulfonyl]-2-(4-azabicyclo[3.1.0]hexan-4-yl)-6-(3-fluoro-5-isobutoxy-phenyl)pyridine-3-carboxamide]	+++ (“+++” means <3 uM)
CC(C)COc1cc(F)cc(-c2ccc(C(=O)NS(=O)(=O)c3ccn[nH]3)c(N3CCCC(C(F)(F)F)C3)n2)c1 (centres unmarked) [Compound 907, 6-(3-fluoro-5-isobutoxy-phenyl)-N-(1H-pyrazol-5-ylsulfonyl)-2-[3-(trifluoromethyl)-1-piperidyl]pyridine-3-carboxamide]	+++ (“+++” means <3 uM)
Cc1cc(C)c(Oc2nc(C(C)(C)C)ccc2C(=O)NS(=O)(=O)c2ccnn2C)c(C)c1 [Compound 911, 6-tert-butyl-N-(2-methylpyrazol-3-yl)sulfonyl-2-(2,4,6-trimethylphenoxy)pyridine-3-carboxamide]	+++ (“+++” means <3 uM)
CC(C)COc1cc(F)cc(-c2ccc(C(=O)NS(=O)(=O)c3ccn[nH]3)c(N3CCC[C@@H](c4ccccc4)C3)n2)c1 [Compound 912, 6-(3-fluoro-5-isobutoxy-phenyl)-2-[(3S)-3-phenyl-1-piperidyl]-N-(1H-pyrazol-5-ylsulfonyl)pyridine-3-carboxamide]	+++ (“+++” means <3 uM)
Cc1cc(C)c(Oc2nc(-c3cc(F)cc(OC(C)C)c3)ccc2C(=O)NS(=O)(=O)c2cc[nH]n2)c(C)c1 [Compound 914, 6-(3-fluoro-5-isopropoxy-phenyl)-N-(1H-pyrazol-3-ylsulfonyl)-2-(2,4,6-trimethylphenoxy)pyridine-3-carboxamide]	+++ (“+++” means <3 uM)
Cc1cc(C)c(Oc2nc(C(C)(C)C)ccc2C(=O)NS(=O)(=O)c2cccc(NCCO)n2)c(C)c1 [Compound 916, 6-tert-butyl-N-[[6-(2-hydroxyethylamino)-2-pyridyl]sulfonyl]-2-(2,4,6-trimethylphenoxy)pyridine-3-carboxamide]	+++ (“+++” means <3 uM)

The next lines start with the values.

EC30	Compound
++ (“++” means between 3 uM and 10 uM)	CC(C)Oc1ccc(-c2ccc(C(=O)NS(=O)(=O)c3cccc(N)n3)c(N3CCC(F)(F)CC3)n2)cn1 [Compound 889, N-[(6-amino-2-pyridyl)sulfonyl]-2-(4,4-difluoro-1-piperidyl)-6-(6-isopropoxy-3-pyridyl)pyridine-3-carboxamide]
+++ (“+++” means <3 uM)	CC(C)c1ccc(-c2ccc(C(=O)NS(=O)(=O)c3cccc(N)n3)c(N3C[C@H](C)CC3(C)C)n2)cc1 [Compound 890, N-[(6-amino-2-pyridyl)sulfonyl]-6-(4-isopropylphenyl)-2-[(4R)-2,2,4-trimethylpyrrolidin-1-yl]pyridine-3-carboxamide]
+++ (“+++” means <3 uM)	Cc1cc(C)c(CN2Cc3ccccc3C2(C)C(=O)NS(=O)(=O)c2cccc(N)n2)c(C)c1 (centres unmarked) [Compound 895, N-[(6-amino-2-pyridyl)sulfonyl]-1-methyl-2-[(2,4,6-trimethylphenyl)methyl]isoindoline-1-carboxamide]
+++ (“+++” means <3 uM)	CC1CN(c2nc(-c3ccc(C(C)C)nc3)ccc2C(=O)NS(=O)(=O)c2cccc(N)n2)C(C)(C)C1 (centres unmarked) [Compound 896, N-[(6-amino-2-pyridyl)sulfonyl]-6-(6-isopropyl-3-pyridyl)-2-(2,2,4-trimethylpyrrolidin-1-yl)pyridine-3-carboxamide]
+++ (“+++” means <3 uM)	COc1cc(Cl)ccc1-c1ccc(C(=O)NS(=O)(=O)c2cccc(N)n2)c(Oc2c(C)cc(C)cc2C)n1 [Compound 897, N-[(6-amino-2-pyridyl)sulfonyl]-6-(4-chloro-2-methoxy-phenyl)-2-(2,4,6-trimethylphenoxy)pyridine-3-carboxamide]
+++ (“+++” means <3 uM)	CC(C)CN(C)c1cc(-c2ccc(C(=O)NS(=O)(=O)c3cccc(N)n3)c(N3CC(C)CC3(C)C)n2)ccn1 (centres unmarked) [Compound 898, N-[(6-amino-2-pyridyl)sulfonyl]-6-[2-[isobutyl(methyl)amino]-4-pyridyl]-2-(2,2,4-trimethylpyrrolidin-1-yl)pyridine-3-carboxamide]
+++ (“+++” means <3 uM)	CCc1ccc(-c2ccc(C(=O)NS(=O)(=O)c3cccc(N)n3)c(Oc3c(C)cc(C)cc3C)n2)cc1 [Compound 900, N-[(6-amino-2-pyridyl)sulfonyl]-6-(4-ethylphenyl)-2-(2,4,6-trimethylphenoxy)pyridine-3-carboxamide]
++ (“++” means between 3 uM and 10 uM)	CCOc1ccc(-c2ccc(C(=O)NS(=O)(=O)c3ccc[nH]c3=O)c(Oc3c(C)cc(C)cc3C)n2)cc1F [Compound 901, 6-(4-ethoxy-3-fluoro-phenyl)-N-[(2-oxo-1H-pyridin-3-yl)sulfonyl]-2-(2,4,6-trimethylphenoxy)pyridine-3-carboxamide]
+++ (“+++” means <3 uM)	Cc1cc(OC(C)C)ncc1-c1ccc(C(=O)NS(=O)(=O)c2cccc(N)n2)c(N2CC(C)CC2(C)C)n1 (centres unmarked) [Compound 905, N-[(6-amino-2-pyridyl)sulfonyl]-6-(6-isopropoxy-4-methyl-3-pyridyl)-2-(2,2,4-trimethylpyrrolidin-1-yl)pyridine-3-carboxamide]
+ (“+” means greater than 10 uM)	Cc1cc(C)c(Oc2nc(-c3cccc(O)c3)ccc2C(=O)NS(=O)(=O)c2cccc(N)n2)c(C)c1 [Compound 908, N-[(6-amino-2-pyridyl)sulfonyl]-6-(3-hydroxyphenyl)-2-(2,4,6-trimethylphenoxy)pyridine-3-carboxamide]
+++ (“+++” means <3 uM)	Cc1cc(C)c(Oc2nc(-c3cccnc3OC(C)C)ccc2C(=O)NS(=O)(=O)c2cccc(N)n2)c(C)c1 [Compound 909, N-[(6-amino-2-pyridyl)sulfonyl]-6-(2-isopropoxy-3-pyridyl)-2-(2,4,6-trimethylphenoxy)pyridine-3-carboxamide]
+++ (“+++” means <3 uM)	CCOc1ccc(-c2ccc(C(=O)NS(=O)(=O)c3cccc(N)n3)c(N3CCC(C)CC3)n2)cc1 [Compound 910, N-[(6-amino-2-pyridyl)sulfonyl]-6-(4-ethoxyphenyl)-2-(4-methyl-1-piperidyl)pyridine-3-carboxamide]
++ (“++” means between 3 uM and 10 uM)	CC(C)Oc1ccc(-c2ccc(C(=O)NS(=O)(=O)c3cccc(N)n3)c(N3CCC(F)CC3)n2)cn1 [Compound 913, N-[(6-amino-2-pyridyl)sulfonyl]-2-(4-fluoro-1-piperidyl)-6-(6-isopropoxy-3-pyridyl)pyridine-3-carboxamide]
+++ (“+++” means <3 uM)	CC(C)Oc1ccc(-c2ccc(C(=O)NS(=O)(=O)c3cccc(N)n3)c(N3CC(C)(C)CC3(C)C)n2)cn1 [Compound 915, N-[(6-amino-2-pyridyl)sulfonyl]-6-(6-isopropoxy-3-pyridyl)-2-(2,2,4,4-tetramethylpyrrolidin-1-yl)pyridine-3-carboxamide]
